Structures can show the parent of a compound that is named as a salt.
Molecular target: T1, human hNET (Homo sapiens, UniProt P23975)
T1 construct: expressed in transfected cells; host or cells: MDCK-Net6 (MDCK cells stably transfected with hNET)
Assay: Norepinephrine (NE) uptake assay in MDCK-Net6 cells
Assay type: cell-based
Conditions: 1 μM test compound; [3H]NE uptake, MDCK-Net6 cells stably transfected with hNET
Protocol: MDCK-Net6 cells, stably transfected with human hNET (Pacholczyk, T., R. D. Blakely, and S. G. Amara, Nature, 1991, 350(6316): p. 350-4) were cultured in growth medium containing high glucose DMEM (Gibco, Cat. No. 11995), 10% FBS (dialyzed, heat-inactivated, US Bio-Technologies, Lot FBD1129HI) and 500 µg/ml G418 (Gibco, Cat. No. 10131). Cells were plated at 300,000/T75 flask and cells were split twice weekly. The JAR cell line (human placental choriocarcinoma) was purchased from ATCC (Cat. No. HTB-144). The cells were cultured in growth medium containing RPMI 1640 (Gibco, Cat. No. 72400), 10% FBS (Irvine, Cat. No. 3000), 1% sodium pyruvate (Gibco, Cat. No. 1136) and 0.25% glucose. Cells were plated at 250,000 cells/T75 flask and split twice weekly. For all assays, cells were plated in Wallac 96-well sterile plates (PerkinElmer, Cat. No. 3983498).
Norepinephrine (NE) Uptake Assay
On day 1, cells were plated at 3,000 cells/well in growth medium and maintained in a cell incubator (37° C., 5% CO2). On day 2, growth medium was replaced with 200 μl of assay buffer (25 mM HEPES; 120 mM NaCl; 5 mM KCl; 2.5 mM CaCl2; 1.2 mM MgSO4; 2 mg/ml glucose (pH 7.4, 37° C.)) containing 0.2 mg/ml ascorbic acid and 10 μM pargyline. Plates containing cells with 200 μl of assay buffer were equilibrated for 10 minutes at 37° C. prior to addition of compounds. A stock solution of desipramine was prepared in DMSO (10 mM) and delivered to triplicate wells containing cells for a final test concentration of 1 μM. Data from these wells were used to define non-specific NE uptake (minimum NE uptake). Test compounds were prepared in DMSO (10 mM) and diluted in assay buffer according to test range (1 to 10,000 nM). Twenty-five microliters of assay buffer (maximum NE uptake) or test compound were added directly to triplicate wells containing cells in 200 μl of assay buffer. The cells in assay buffer with test compounds were incubated for 20 minutes at 37° C. To initiate the NE uptake, [^3H]NE diluted in assay buffer (120 nM final assay concentration) was delivered in 25 μl aliquots to each well and the plates were incubated for 5 minutes (37° C.). The reaction was terminated by decanting the supernatant from the plate. The plates containing cells were washed twice with 200 μl assay buffer (37° C.) to remove free radioligand. The plates were then inverted, left to dry for 2 minutes, then reinverted and air-dried for an additional 10 minutes. The cells were lysed in 25 μl of 0.25 N NaOH solution (4° C.), placed on a shake table and vigorously shaken for 5 minutes. After cell lysis, 75 μl of scintillation cocktail was added to each well and the plates were sealed with film tape. The plates were returned to the shake table and vigorously shaken for a minimum of 10 minutes to ensure adequate partitioning of organic and aqueous solutions. The plates were counted in a Wallac Microbeta counter (PerkinElmer) to collect the raw cpm data.
For each experiment, a data stream of cpm values collected from the Wallac Microbeta counter was downloaded to a Microsoft Excel statistical application program. Calculations of EC50 values were made using the transformed-both-sides logistic dose response program written by Wyeth Biometrics Department. The statistical program uses mean cpm values from wells representing maximum binding or uptake (assay buffer) and mean cpm values from wells representing minimum binding or uptake ((1 μM desipramine (hNET) or 1 μM paroxetine (hSERT)). Estimation of the EC50 value was completed on a log scale and the line was fit between the maximum and minimum binding or uptake values. All graphic data representation was generated by normalizing each data point to a mean percent based on the maximum and minimum binding or uptake values. The EC50 values reported from multiple experiments were calculated by pooling the raw data from each experiment and analyzing the pooled data as one experiment.

T1 sequence (P23975 whole entry): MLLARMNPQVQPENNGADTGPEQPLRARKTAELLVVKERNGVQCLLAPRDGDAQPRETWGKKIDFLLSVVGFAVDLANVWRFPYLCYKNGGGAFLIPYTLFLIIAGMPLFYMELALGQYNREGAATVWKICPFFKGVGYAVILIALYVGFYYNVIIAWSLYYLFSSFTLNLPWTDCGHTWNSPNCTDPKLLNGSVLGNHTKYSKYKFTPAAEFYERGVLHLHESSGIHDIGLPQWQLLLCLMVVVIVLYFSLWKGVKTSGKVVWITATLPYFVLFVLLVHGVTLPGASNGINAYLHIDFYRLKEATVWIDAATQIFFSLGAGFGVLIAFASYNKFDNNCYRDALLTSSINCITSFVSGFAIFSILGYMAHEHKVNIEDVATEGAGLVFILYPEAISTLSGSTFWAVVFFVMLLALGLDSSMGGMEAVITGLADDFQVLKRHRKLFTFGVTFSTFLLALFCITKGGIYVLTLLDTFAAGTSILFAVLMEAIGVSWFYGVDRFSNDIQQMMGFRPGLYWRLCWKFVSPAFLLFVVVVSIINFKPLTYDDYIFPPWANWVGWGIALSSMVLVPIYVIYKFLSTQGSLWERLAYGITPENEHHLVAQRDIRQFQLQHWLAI

SMILES	inhibition at 1 µM [%]	% Inhibition @ 1 μM (hNET) [%]
COc1ccc(C(CN2CCN(C)CC2)C2(O)CCCCCCC2)cc1Br (centres unmarked) [Example 41, 1-[1-(3-bromo-4-methoxyphenyl)-2-(4-methylpiperazin-1-yl)ethyl]cyclooctanol dihydrochloride]	48	–
Cl.Cl.OC1(C(CN2CCNCC2)c2ccc(Br)cc2)CCC1 (centres unmarked) [Example 20, 1-[1-(4-bromophenyl)-2-piperazin-1-ylethyl]cyclobutanol dihydrochloride]	–	55
OC1(C(CN2CCNCC2)c2ccc(Cl)cc2)CCCCC1 (centres unmarked) [Example 26, 1-[1-(4-chlorophenyl)-2-piperazin-1-ylethyl]cyclohexanol dihydrochloride]	29	–
OC1(C(CN2CCNCC2)c2ccc(Br)cc2)CCCCC1 (centres unmarked) [Example 17, 1-[1-(4-bromophenyl)-2-piperazin-1-ylethyl]cyclohexanol dihydrochloride]	46	–
CN1CCN(CC(c2cccc(C(F)(F)F)c2)C2(O)CCC2)CC1 (centres unmarked) [Example 15, 1-{2-(4-methylpiperazin-1-yl)-1-[3-(trifluoromethyl)phenyl]ethyl}cyclobutanol dihydrochloride]	51	–
COc1ccc(C(CN2CCNCC2)C2(O)CCCC2)cc1Br (centres unmarked) [Example 13, 1-[1-(3-bromo-4-methoxyphenyl)-2-piperazin-1-ylethyl]cyclopentanol dihydrochloride]	53	–
OC1(C(CN2CCNCC2)c2cccc(Cl)c2)CCC1 (centres unmarked) [Example 23, 1-[1-(3-chlorophenyl)-2-piperazin-1-ylethyl]cyclobutanol dihydrochloride]	28	–
OC1(C(CN2CCNCC2)c2ccccc2F)CCC1 (centres unmarked) [Example 28, 1-[1-(2-fluorophenyl)-2-piperazin-1-ylethyl]cyclobutanol dihydrochloride]	14	–

From patent US7531543B2, “Phenylpiperazine cycloalkanol derivatives and methods of their use” (Wyeth, priority 2003, dated 2009)
